PMC10761072, “Post-transcriptional capping generates coenzyme A-linked RNA” (RNA Biology, 2023)

Molecular target: T1, phosphopantetheine adenylyltransferase (PPAT, CoaD) (Escherichia coli, UniProt P0A6I6)
T1 construct: recombinant full-length enzyme expressed from coaD plasmid and purified; hexamer
Assay: capping of […]-labelled 5-mer pppRNA with pPant, denaturing PAGE
Type: biochemical
Conditions: read-out: half-maximal inhibition

T1 sequence (P0A6I6 whole entry): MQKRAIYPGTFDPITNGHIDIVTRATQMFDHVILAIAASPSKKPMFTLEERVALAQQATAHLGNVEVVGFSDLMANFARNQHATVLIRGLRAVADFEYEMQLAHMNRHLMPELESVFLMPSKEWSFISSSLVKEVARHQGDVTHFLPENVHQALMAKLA

## Nc1ncnc2c1ncn2[C@@H]1O[C@H](COP(=O)(O)OP(=O)(O)OP(=O)(O)O)[C@@H](O)[C@H]1O [ATP]
  IC50: ~5 µM
